Test results reported in patent publication US9913832B2, “Accelerating thrombus resolution through augmentation of p53 activity” (priority 2009, dated 2018).
“Also recorded” adds a separate entry of the source.

Key:
[1] = tested on: mice lacking the p53 gene; experiment: mouse model of thrombus resolution (vena caval ligation), mice lacking the p53 gene; type: in vivo; conditions: quinacrine versus control, FIG. 9, last two columns
From the text: To determine whether the beneficial effect on thrombus resolution of quinacrine was due to activation of the p53 gene and not some other unknown effect of quinacrine on thrombus resolution the quinacrine experiment was repeated in mice that lack p53 (FIG. 2).
(§1) The well-established rodent model of thrombus resolution was used to define a role for the p53 gene in this process. In this model, a mouse is anesthetized, the abdomen is opened with standard sterile surgical technique and the vena cava (the largest abdominal vein) is ligated in the abdomen with a suture immediately below the level of the renal veins.
To determine if pharmacologic activation of the p53 gene beyond its usual activation by thrombus resolution might accelerate thrombus resolution, normal mice were treated with the p53 activator quinacrine (25 mg/kg body weight, by daily injection) or saline as a control, and then subjected to vena caval ligation as described above. […] To determine if this effect of quinacrine was actually due to p53 activation, this experiment was repeated in animals lacking the p53 gene.

normal (wildtype) mice = experiment: mouse model of thrombus resolution (vena caval ligation), normal mice; type: in vivo; conditions: 25 mg/kg body weight by daily injection, versus saline, FIG. 8
From the text: In an effort to develop pharmacological and molecular therapy to accelerate thrombus resolution, the function of the p53 gene was studied in an in vivo model of thrombus resolution. In this mouse model (vena caval ligation) the thrombus shrinks between day 4 and day 12 by about 50% as defined by change in thrombus weight. It was noted that the expression of the p53 protein is increased in thrombus resolution.
In order to determine whether augmentation of normal p53 function could accelerate thombus resolution wildtype mice were treated with the p53 activator quinacrine (25 mg/kg body weight, by daily injection). Quinacrine is known to increase p53 levels by stabilizing the p53 protein and preventing its normal degradation inside cells.
as §1
The weight of the thrombus decreases with time, and this change in weight reflects the thrombus resolution process in this model. […]

experimental thrombi = conditions: literature studies of exogenous therapy on formed or established thrombus; cited from earlier work

Molecule	thrombus resolution / thrombus size at day 12 [1]	thrombus resolution as determined by thrombus weight on day 12 (normal (wildtype) mice)	thrombus resolution in experimental animal models (experimental thrombi)
CCN(CC)CCCC(C)Nc1c2ccc(Cl)cc2nc2ccc(OC)cc12 (stereo not shown) [quinacrine]	absent; also recorded: no difference in thrombus size	improved thrombus resolution; also recorded: decreased thrombus weight	
MCP-1: cytokine macrophage chemotactic factor			does improve experimental thrombus resolution
low molecular weight heparin			no improvement in the resolution of an established thrombus
